Where “and” joins values, the source holds several entries; their conditions need not be identical. Identical values can stand only once.
Assays:
[1] = target: T1, Aβ (1-40) peptide (Homo sapiens, UniProt P05067); assay: BAPA (Beta-Amyloid Peptide Aggregation, pH 6.0), filtration endpoint; assay type: biochemical; details: Aβ(1-40) 33 μM, pH 6.0, 2 to 4 hours, room temperature
T1 construct: Aβ (1-40) peptide in 20% HFIP
Experimental: • 1) Prepare the reaction mix above by mixing the components and storing on ice. • 2) Pipet 14.5 μL of reaction mixture into each of 50 wells of a polystyrene U-bottom 96-well microtiter plate (Coming 25881-96) on ice. • 3) Add 1.7 μL of diluted compound to be tested to each well in a column of eight, including solvent control. Serial 3-fold dilutions from 1 mM (100 μM final) in assay buffer-urea=7 dilutions+zero. Each 96-well plate can therefore accommodate 11 samples+1 Congo Red control (0.039-5 μM final in 2-fold steps). • 4) Seal the plate with aluminum film and incubate for 10 minutes on ice. • 5) Raise the temperature to 37° C. and incubate for 3 to 5 hours (depends on the lot of the peptide). • 6) Remove the aluminum film and add 250 μL/well of 5 μM thioflavin T (ThT) [T-3516, Sigma-Aldrich] in 50 mM glycine-NaOH, pH 8.5. Read fluorescence on a plate reader (ex=440 nm/20 nm; em=485 nm/20 nm) within 5 minutes. BAPA (Beta-Amyloid Peptide Aggregation) This assay is used to provide a measure of inhibition by a compound against the aggregation behavior of the β-amyloid peptide. The purpose of this assay is to provide a higher volume method of assaying the amount of β-amyloid aggregation using an endpoint assay based on filtration. In this assay, hexafluoroisopropanol (HFIP) is used to break down the initial amyloid peptide to a monomer state and use a concentration of 33 μM which is high enough so that aggregation will occur at pH 6.0 in several hours. Methods: Beta-Amyloid Peptide Aggregation, pH 6.0 (BAPA) In a 96-well plate (Costar 3794), we add 25 μL 50 mM phosphate buffer, pH 6.0, 10 μL 0.5 mg/mL Aβ (1-40) peptide in 20% HFIP+0.1 μL/assay radioiodinated ^125I Aβ (1-40) [^125I Aβ(1-40)], and 1 μL of the compound to be tested starting at 50 mM with a concentration of DMSO<1%. Then, we incubate for 2 to 4 hours at room temperature. We stop the reaction with 200 μL of 50 mM phosphate buffer, pH 6.0, and filter it through a 0.2 μm 96-well filter plate (Millipore MAGU […]). We wash the filter plate with 100 μL of the same phosphate buffer. Aggregation was detected on a Microbeta counter after impregnating the filters with Meltilex (1450-441) and is corrected for background.

[2] = target: T2, Soluble Aβ(1-40) (Homo sapiens, UniProt P05067); assay: BASST (Beta-Amyloid Self-Seeding, Thioflavin T): inhibitors of self-seeded amyloid fibril growth; assay type: biochemical; details: 30 μM soluble Aβ(1-40), 37° C., 3 to 5 hours, thioflavin T fluorescence
T2 construct: Soluble Aβ(1-40)—2.2 mg/mL in deionized H2O
Experimental: • 1) Prepare reaction mixture above by mixing components and storing on ice. • 2) Pipet 14.5 μL of reaction mixture into each of 50 wells on a polypropylene U-bottom 96-well microtiter plate on ice (Costar 3794). • 3) Add 1.7 μL of diluted compound to be tested to each well in a column of eight, including solvent control. Serial 3-fold dilutions from 1 mM (100 μM final) in assay buffer-urea=7 dilutions+zero. Each 96-well plate can therefore accommodate 11 samples+1 Congo Red control (0.039-5 μM final in 2-fold steps). • 4) Seal the plate with aluminum film (Beckman 538619) and incubate for 10 minutes on ice. • 5) Raise the temperature to 37° C. and incubate for 3 to 5 hours (depending on the lot of the peptide). • 6) Remove the aluminum film and add 200 μL/well of ice cold assay buffer with urea, collecting the radiolabeled fibrils by vacuum filtration through 0.2-μm pore size GVWP filters in 96-well plates (Millipore MAGV […], Bedford, Mass.). Determine the radioactivity of the filters using standard methods well-known to those skilled in the art. BASST (Beta-Amyloid Self-Seeding, Thioflavin T) An assay for inhibitors of self-seeded amyloid fibril growth Methods: Materials: Stock Solutions: Assay Buffer-50 mM sodium phosphate, pH 7.5, 100 mM NaCl, 0.02% NaN3, 1 M urea (filter and store at 4° C.) Soluble Aβ(1-40)-2.2 mg/mL in deionized H2O (store in aliquots at -20° C., keep on ice when thawed) will self-seed after 1 week storage. Typically, the solution should be stored until no lag phase is seen in the assay. Final assay conditions: 30 μM soluble Aβ(1-40) in deionized water in assay buffer. Compound to be tested is dissolved in DMSO, typically 5 to 50 mM stock, such that the final concentration of DMSO is <1% v/v in the assay. Assay: Reaction mixture for 50 assays (on ice) comprised of 1 μL of soluble Aβ(1-40)+13.5 μL assay buffer per assay. The following are the amounts of the components of the reaction mixture that result in each of the 50 assay wells. 50 μL soluble Aβ(1-40) 675 μL assay buffer Assay Method • 1) Prepare the reaction mix above by mixing the components and storing on ice. • 2) Pipet 14.5 μL of reaction mixture into each of 50 wells of a polystyrene U-bottom 96-well microtiter plate (Coming 25881-96) on ice. • 3) Add 1.7 μL of diluted compound to be tested to each well in a column of eight, including solvent control. Serial 3-fold dilutions from 1 mM (100 μM final) in assay buffer-urea=7 dilutions+zero. Each 96-well plate can therefore accommodate 11 samples+1 Congo Red control (0.039-5 μM final in 2-fold steps). • 4) Seal the plate with aluminum film and incubate for 10 minutes on ice. • 5) Raise the temperature to 37° C. and incubate for 3 to 5 hours (depends on the lot of the peptide). • 6) Remove the aluminum film and add 250 μL/well of 5 μM thioflavin T (ThT) [T-3516, Sigma-Aldrich] in 50 mM glycine-NaOH, pH 8.5. Read fluorescence on a plate reader (ex=440 nm/20 nm; em=485 nm/20 nm) within 5 minutes. BAPA (Beta-Amyloid Peptide Aggregation)

T2 sequence (P05067 672-711 limits assumed): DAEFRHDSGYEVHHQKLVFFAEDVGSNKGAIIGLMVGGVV
T1 sequence (P05067 672-711 limits assumed): as above

Structure (SMILES) | IC50 [1] [µM] | IC50 [2]
CCCCCN(CCCCC)C1Cc2ccc(Nc3ccc(C)cc3C(=O)O)cc2C1 (stereo not drawn) [Example 6, 2-(2-Dipentylamino-indan-5-yl-amino)-5-methyl-benzoic acid] | 118 | 21 µM and > 100 µM
CCCCCN(CCCCC)C1Cc2ccc(Nc3ccc(C(=O)O)cc3[N+](=O)[O-])cc2C1 (stereo not drawn) [Example 7, 4-(2-Dipentylamino-indan-5-yl-amino)-3-nitro-benzoic Acid] | 118 | 8 µM
COc1ccc(Nc2ccc3c(c2)CC(NCc2ccc(Cl)c(Cl)c2)C3)c(C(=O)O)c1 (stereo not drawn) [Example 5, 2-[2-(3,4-Dichlorobenzylamino)-indan-5-ylamino]-5-methoxy-benzoic acid] | 165 | 30 µM
CCCCCNC1Cc2ccc(Nc3ccc([N+](=O)[O-])cc3C(=O)O)cc2C1 (stereo not drawn) [Example 12, 2-[2-(n-Pentylamino)-indan-5-ylamino]-5-nitro-benzoic acid] | 5 | > 100 µM
O=C(O)c1cc([N+](=O)[O-])ccc1Nc1ccc2c(c1)CC(NCc1ccc(F)cc1)C2 (stereo not drawn) [Example 10, 2-[2-(4-Fluorobenzylamino)-indan-5-ylamino]-5-nitro-benzoic acid] | > 100 | 30 µM
CCCCCN(CCCCC)C1Cc2ccc(Nc3ccc([N+](=O)[O-])cc3C(=O)O)cc2C1 (stereo not drawn) [Example 1, 2-[(2-N,N-di-n-pentylamino)-indan-5-yl]amino-5-nitro-benzoic Acid] | 33 | 40 µM

From patent publication US6949575B2, “Method of inhibiting amyloid protein aggregation and imaging amyloid deposits using aminoindane derivatives” (Pfizer Inc., priority 2000, dated 2005)
